The results in this text go back to patent US20080312271A1, “AZABENZIMIDAZOLYL COMPOUNDS” (Pfizer Inc., priority 2006, published 2008).

The target of the first test is T1, mGluR2 receptor (metabotropic glutamate receptor 2) (Homo sapiens, UniProt Q14416).
T1 construct: expressed in transfected cells
T1 sequence (Q14416 19-872, species assumed): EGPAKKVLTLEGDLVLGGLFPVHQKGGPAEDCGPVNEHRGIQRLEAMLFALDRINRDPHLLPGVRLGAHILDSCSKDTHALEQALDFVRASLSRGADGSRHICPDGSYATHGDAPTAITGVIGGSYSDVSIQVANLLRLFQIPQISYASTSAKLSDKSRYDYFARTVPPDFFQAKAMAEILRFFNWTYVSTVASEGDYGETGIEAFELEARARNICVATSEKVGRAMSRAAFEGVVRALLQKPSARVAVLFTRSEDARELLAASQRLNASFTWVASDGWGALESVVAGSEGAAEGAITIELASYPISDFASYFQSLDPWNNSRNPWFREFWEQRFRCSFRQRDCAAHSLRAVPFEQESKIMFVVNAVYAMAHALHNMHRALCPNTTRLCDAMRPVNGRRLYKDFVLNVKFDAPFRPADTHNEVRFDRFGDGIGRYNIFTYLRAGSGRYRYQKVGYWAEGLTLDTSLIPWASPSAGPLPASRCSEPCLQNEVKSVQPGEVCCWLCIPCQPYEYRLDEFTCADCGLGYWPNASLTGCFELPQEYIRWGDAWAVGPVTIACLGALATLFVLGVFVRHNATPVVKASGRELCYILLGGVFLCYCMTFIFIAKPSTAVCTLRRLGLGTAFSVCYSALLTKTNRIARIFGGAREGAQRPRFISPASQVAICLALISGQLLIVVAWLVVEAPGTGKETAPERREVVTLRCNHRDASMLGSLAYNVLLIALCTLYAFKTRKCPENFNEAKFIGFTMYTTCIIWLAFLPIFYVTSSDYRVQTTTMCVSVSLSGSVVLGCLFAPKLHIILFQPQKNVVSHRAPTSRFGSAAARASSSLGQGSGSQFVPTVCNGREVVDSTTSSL
Put plainly: mGluR2 Potentiator Screen, FLIPR, EC10-EC20 glutamate challenge. The test is classed as cell-based.
Settings: not given
The method in brief:
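Potentiator assay in HEK cells stably expressing mGluR2 with Gα15, glutamine-depleted overnight, loaded with Fluo-4 plus probenecid and GPT/pyruvate to remove glutamate. Peak fluorescence ratio curve-fitted, with maximum set by on-plate standards.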
As a reminder, the EC50 is the concentration needed to bring the measured effect to its halfway point. As for `Cn1c(CN2CCC(c3ccc(F)c(Cl)c3)CC2)nc2cccnc21` [compound 103], the EC50 amounted to 367 nM.
On to `COc1ccccc1C1CCN(Cc2nc3cnccc3n2C)CC1` [compound 46], for which the 50% effective concentration (EC50) was found to be 1450 nM.
`COc1cc(C(F)(F)F)ccc1C1CCN(Cc2nc3ncccc3n2C)CC1` [compound 64]: the 50% effective concentration (EC50) is 11.1 nM.
On the same count and under the same terms, the same measure for `Cn1c(CN2CCC(c3ccc(F)cc3F)CC2)nc2ncccc21` [compound 82]: 251 nM; for `Cn1c(CN2CCC(c3ccccc3F)CC2)nc2ncccc21` [compound 54]: 1590 nM.
Still for that read-out and setting: as for `C[C@@H]1CN(Cc2nc3ncccc3n2C)CC[C@@H]1c1ccc(Cl)cc1C(F)(F)F` (relative stereo) [compound 207], the figure is 108 nM.
In the case of `Cc1cc(F)ccc1[C@H]1CCN(Cc2nc3ncccc3n2C)C[C@H]1C` (relative stereo) [compound 206], the EC50 amounted to 88.6 nM.
On the same count and under the same terms, the same measure for `Cn1c(CN2CCC(c3ccc(F)cc3F)CC2)nc2cnccc21` [compound 84]: 218 nM; for `Cc1cc(NC(=O)c2cccc(C3CCN(Cc4nc5ncccc5n4C)CC3)c2)n[nH]1` [compound 105]: 3660 nM.
Still for that read-out and setting: the same measure for `Cn1c(CN2CCC(c3ccc(Cl)cc3F)CC2)nc2ncccc21` [compound 110]: 27.1 nM; for `C[C@@H]1CN(Cc2nc3cnccc3n2C)CC[C@@H]1c1ccc(OC(F)(F)F)c(Cl)c1` (relative stereo) [compound 212]: 209 nM.
On the same count and under the same terms, the same measure for `C[C@@H]1CN(Cc2nc3ncccc3n2C)CC[C@@H]1c1ccc(OC(F)(F)F)c(Cl)c1` (relative stereo) [compound 213]: 253 nM; for `Cn1c(CN2CCC(c3c(F)cccc3C(F)(F)F)CC2)nc2cnccc21` [compound 228]: more than 458 nM.
On to `C[C@@H]1CN(Cc2nc3cnccc3n2C)CC[C@@H]1c1cc(F)c(F)cc1F` (relative stereo) [compound 180], for which the half-maximal effective concentration (EC50) was 762 nM.
As for `COc1cc(OC(F)(F)F)ccc1[C@H]1CCN(Cc2nc3ncccc3n2C)C[C@H]1C` (relative stereo) [compound 215], the EC50 is 59.4 nM.
On the same count and under the same terms, the same measure for `Cn1c(CN2CCC(c3ccccc3F)CC2)nc2cnccc21` [compound 49]: 1050 nM; for `C[C@@H]1CN(Cc2nc3cnccc3n2C)CC[C@@H]1c1ccc(OC(F)(F)F)cc1F` (relative stereo) [compound 146]: 55.5 nM; for `C[C@@H]1CN(Cc2nc3ncccc3n2C)CC[C@@H]1c1ccc(C(F)(F)F)cc1F` (single isomer, unassigned) [compound 138]: less than 9.25 nM.

Staying with this test, now noted: mGluR2 potentiator screen, FLIPR, EC10-EC20 glutamate challenge.
As to `CC(C)Oc1ccc(C2CCN(Cc3nc4cnccc4n3C)CC2)c(Cl)c1` [compound 267], the EC50 was 85.5 nM.
On to `C[C@@H]1CN(Cc2nc3cnccc3n2C)CC[C@@H]1c1ccc(F)c(F)c1F` (relative stereo) [compound 250], for which the EC50 was more than 221 nM.
`Cc1cc(C(F)(F)F)ccc1C1CCN(Cc2nc3ncccc3n2C)CC1` [compound 243]: the 50% effective concentration (EC50) stood at 51.1 nM.
With `C[C@@H]1CN(Cc2nc3ncccc3n2C)CC[C@@H]1c1ccc(F)cc1OC(F)F` (relative stereo) [compound 274], the EC50 amounted to 75.5 nM.
As for `CC(C)Oc1ccc(C2CCN(Cc3nc4cnccc4n3C)CC2)c(F)c1` [compound 261], the EC50 was found to be 125 nM.
On the same count and under the same terms, as for `Cn1c(CN2CCC(c3ccc(C(F)(F)F)cc3Cl)CC2)nc2cnccc21` [compound 273], the figure is 85 nM.
